Results taken from the supplement of paper PMC11061612.

Columns and labels:
Test in all cases: combination Emax (second highest fraction inhibited in the dose matrix, 72 h); higher = more inhibition; extreme values may be limits of the assay
[1] = test system: CAL-148 (Breast Carcinoma)
Method in brief: (§1)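 After 24 hours at 37°C and 5% CO2 in 1536-well plates, cells in DMEM/F12 or RPMI plus 10% FBS received two-drug dose matrices for 72 hours. Viability came from CellTiter-Glo 2.0 luminescence and was scaled as inhibition, anchored at 0 by vehicle wells and at 1 by blank wells. Combination Emax is taken as the second-highest inhibition in the matrix, and Bliss excess as the observed combination effect less EA + EB − EA·EB, with EA and EB the single-agent effects.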

[2] = test system: Daoy (Other Solid Carcinomas)
Method in brief: as §1

[3] = test system: HT-1376 (Bladder Carcinoma)
Method in brief: as §1

[4] = test system: Hs-578-T (Breast Carcinoma)
Method in brief: as §1

[5] = test system: KP-1N (Pancreatic Carcinoma)
Method in brief: as §1

[6] = test system: KURAMOCHI (Ovarian Carcinoma)
Method in brief: as §1

[7] = test system: LNCaP-Clone-FGC (Prostate Carcinoma)
Method in brief: as §1

[8] = test system: LS-180 (Colorectal Carcinoma)
Method in brief: as §1

[9] = test system: RO82-W-1 (Thyroid Gland Carcinoma)
Method in brief: as §1

[10] = test system: Ramos-2G6-4C10 (Burkitt's Lymphoma)
Method in brief: as §1

[11] = test system: SNU-5 (Gastric Carcinoma)
Method in brief: as §1

[12] = test system: T98G (Glioblastoma)
Method in brief: as §1

| SMILES | combination Emax [1] | combination Emax [2] | combination Emax [3] | combination Emax [4] | combination Emax [5] | combination Emax [6] | combination Emax [7] | combination Emax [8] | combination Emax [9] | combination Emax [10] | combination Emax [11] | combination Emax [12] |
| --- | --- | --- | --- | --- | --- | --- | --- | --- | --- | --- | --- | --- |
| CC(=O)Nc1cccc(-n2c(=O)n(C3CC3)c(=O)c3c(Nc4ccc(I)cc4F)n(C)c(=O)c(C)c32)c1 [Trametinib] + Cc1nc(-c2cn3c(n2)-c2ccc(-c4cnn(C(C)(C)C(N)=O)c4)cc2OCC3)n(C(C)C)n1 [Taselisib] (first compound max 1 µM, 7x7, partner max 10 µM) | 0.986 | 0.622 | 0.339 | 0.919 | 0.644 | 0.703 | 0.813 | 0.903 | 0.41 | 0.121 | 0.829 | 0.855 |
| CC1(C)CCC(CN2CCN(c3ccc(C(=O)NS(=O)(=O)c4ccc(NCC5CCOCC5)c([N+](=O)[O-])c4)c(Oc4cnc5[nH]ccc5c4)c3)CC2)=C(c2ccc(Cl)cc2)C1 [Venetoclax] + C1CN(CCC1(C(=O)N[C@@H](CCO)C2=CC=C(C=C2)Cl)N)C3=NC=NC4=C3C=CN4 [Capivasertib] (first compound max 1 µM, 7x7, partner max 3 µM) | 0.966 | 0.21 | 0.11 | 0.812 | 0.172 | 0.536 | 0.916 | 0.287 | 0.251 | 0.173 | 0.336 | 0.326 |
| CC1(C)CCC(CN2CCN(c3ccc(C(=O)NS(=O)(=O)c4ccc(NCC5CCOCC5)c([N+](=O)[O-])c4)c(Oc4cnc5[nH]ccc5c4)c3)CC2)=C(c2ccc(Cl)cc2)C1 [Venetoclax] + C=CCn1c(=O)c2cnc(Nc3ccc(N4CCN(C)CC4)cc3)nc2n1-c1cccc(C(C)(C)O)n1 [AZD1775] (first compound max 1 µM, partner max 1 µM) | 0.952 | 0.873 | 0.338 | 0.909 | 0.44 | 0.755 | 0.689 | 0.42 | 0.261 | 0.984 | 0.557 | 0.889 |
| CC1(C)CCC(CN2CCN(c3ccc(C(=O)NS(=O)(=O)c4ccc(NCC5CCOCC5)c([N+](=O)[O-])c4)c(Oc4cnc5[nH]ccc5c4)c3)CC2)=C(c2ccc(Cl)cc2)C1 [Venetoclax] + CCN(CCO)CCCOc1ccc2c(Nc3cc(CC(=O)Nc4cccc(F)c4)[nH]n3)ncnc2c1 [AZD2811] (first compound max 1 µM, 7x7, partner max 1 µM) | 0.933 | 0.439 | 0.183 | 0.802 | 0.162 | 0.471 | 0.272 | 0.244 | 0.141 | 0.269 | 0.151 | 0.394 |
| CC1(C)CCC(CN2CCN(c3ccc(C(=O)NS(=O)(=O)c4ccc(NCC5CCOCC5)c([N+](=O)[O-])c4)c(Oc4cnc5[nH]ccc5c4)c3)CC2)=C(c2ccc(Cl)cc2)C1 [Venetoclax] + CN(C)CCCOc1ccc(-c2ccc3ncc4c(c3c2)n(C2CCOCC2)c(=O)n4C)cn1 [AZD0156] (first compound max 1 µM, 7x7, partner max 1 µM) | 0.716 | 0.168 | 0.189 | 0.793 | 0.138 | 0.567 | 0.35 | 0.166 | 0.126 | 0.627 | 0.222 | 0.332 |
| CC1(C)CCC(CN2CCN(c3ccc(C(=O)NS(=O)(=O)c4ccc(NCC5CCOCC5)c([N+](=O)[O-])c4)c(Oc4cnc5[nH]ccc5c4)c3)CC2)=C(c2ccc(Cl)cc2)C1 [Venetoclax] + COc1cc(Nc2ncc3c(n2)-c2ccc(Cl)cc2C(c2c(F)cccc2OC)=NC3)ccc1C(=O)O [Alisertib] (first compound max 1 µM, 7x7, partner max 10 µM) | 0.74 | 0.932 | 0.246 | 0.851 | 0.357 | 0.474 | 0.298 | 0.489 | 0.422 | 0.474 | 0.158 | 0.556 |
| CC1(C)CCC(CN2CCN(c3ccc(C(=O)NS(=O)(=O)c4ccc(NCC5CCOCC5)c([N+](=O)[O-])c4)c(Oc4cnc5[nH]ccc5c4)c3)CC2)=C(c2ccc(Cl)cc2)C1 [Venetoclax] + C[C@@H]1COCCN1C2=NC(=NC(=C2)C3(CC3)[S@](=N)(=O)C)C4=C5C=CNC5=NC=C4 [AZD6738] (first compound max 1 µM, 7x7, partner max 10 µM) | 0.888 | 0.9 | 0.432 | 0.909 | 0.235 | 0.567 | 0.684 | 0.728 | 0.322 | 0.789 | 0.934 | 0.889 |
